Our source for the IC50 values is patent US20160237059A1, “HETEROCYCLIC SUBSTITUTED TRIFLUOROMETHYL PYRIMIDINONES AND THEIR USE” (BAYER PHARMA AKTIENGESELLSCHAFT, priority 2013, published 2016).

The target of one experiment is T1, murine CCR2 (Mus musculus, UniProt P51683).
T1 construct: host or cells: U2OS β-arrestin cell line
As to the kind of experiment: Functional β-arrestin recruiting test with murine MCP-1 (B-2b). The class given is cell-based. Conditions: U2OS β-arrestin cell line transfected with murine CCR2; agonist murine MCP-1; in some cases means of several determinations. Put shortly: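 In a PathHunter β-galactosidase complementation assay, U2OS cells expressing murine CCR2 were preincubated 10 min with compound (10-point, 1:3.16 dilutions), then challenged with murine MCP-1 at its predetermined EC50 for 90 min at 37 °C. Luminescence was read after 60 min, and IC50 was fitted with a 4-parameter Hill function.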
On the technique in general: Recruitment of arrestin is a read-out of receptor activation apart from second messengers.

In another experiment the target is T2, human CCR2 (Homo sapiens, UniProt P41597).
T2 construct: host or cells: Chem-1 cell line
T2 sequence (P41597 1-360 isoform P41597-2): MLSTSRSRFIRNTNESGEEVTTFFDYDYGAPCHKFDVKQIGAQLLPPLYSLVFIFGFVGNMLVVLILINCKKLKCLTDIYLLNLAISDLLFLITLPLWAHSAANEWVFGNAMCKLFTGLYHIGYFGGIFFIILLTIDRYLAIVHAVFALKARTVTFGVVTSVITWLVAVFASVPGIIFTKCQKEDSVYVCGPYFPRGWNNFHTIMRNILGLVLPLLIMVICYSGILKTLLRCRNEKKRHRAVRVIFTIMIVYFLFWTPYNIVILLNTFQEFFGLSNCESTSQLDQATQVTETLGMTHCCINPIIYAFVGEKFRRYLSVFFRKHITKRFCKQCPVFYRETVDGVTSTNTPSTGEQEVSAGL
As to the kind of experiment: Functional Ca2+ release test (B-1). The class given is cell-based. Particulars: Chem-1 cell line transfected with human CCR2; 50% inhibition of the MCP-1 effect, MCP-1 at EC50 (about 5 nM); in some cases means of several determinations. The gist of the method: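 Chem-1 cells expressing human CCR2, loaded with Fluo-4 for 60 min at 37° C, were preincubated 10 min with compound (10-point, 1:3.16 dilutions), then stimulated with MCP-1 at its predetermined EC50 (about 5 nM). Ca2+ release was monitored for 120 s. IC50 came from a 4-parameter Hill fit.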

T1 sequence (P51683 whole entry): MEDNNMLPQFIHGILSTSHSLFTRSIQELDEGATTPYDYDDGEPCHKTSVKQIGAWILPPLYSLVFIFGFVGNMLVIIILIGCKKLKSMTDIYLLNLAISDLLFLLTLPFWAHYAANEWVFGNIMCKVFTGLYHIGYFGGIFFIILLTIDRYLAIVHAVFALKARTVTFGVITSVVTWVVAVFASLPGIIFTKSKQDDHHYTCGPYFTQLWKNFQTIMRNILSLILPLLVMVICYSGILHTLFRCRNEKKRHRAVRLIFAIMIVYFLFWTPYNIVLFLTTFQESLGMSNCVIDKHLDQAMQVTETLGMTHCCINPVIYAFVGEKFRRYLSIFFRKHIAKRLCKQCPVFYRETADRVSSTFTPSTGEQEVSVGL

A word on the IC50: it is the point on the concentration scale where inhibition reaches its midpoint. Lower therefore signals inhibition by little substance. Take `O=c1[nH]c(-c2ncccc2Br)nc(C(F)(F)F)c1Oc1ccc(Cl)c(Cl)c1` [Example 181, 2-(3-bromopyridin-2-yl)-5-(3,4-dichlorophenoxy)-6-(trifluoromethyl)pyrimidin-4(3H)-one]: the results for the 50% inhibitory concentration (IC50) at murine CCR2 and on human CCR2 were 7.9 nM and 0.7 nM, respectively.

With `O=c1[nH]c(-c2ncccc2Br)nc(C(F)(F)F)c1Oc1ccc(Cl)c(C(F)(F)F)c1` [Example 182, 2-(3-bromopyridin-2-yl)-5-[4-chloro-3-(trifluoromethyl)phenoxy]-6-(trifluoromethyl)pyrimidin-4(3H)-one], the half-inhibitory concentration (IC50) at murine CCR2 came out at 8.4 nM; on human CCR2 it was 0.3 nM.

For `COc1cc(C)nc(-c2nc(C(F)(F)F)c(Oc3ccc(Cl)c(Cl)c3)c(=O)[nH]2)n1` [Example 183, 5-(3,4-dichlorophenoxy)-4′-methoxy-6′-methyl-6-(trifluoromethyl)-2,2′-bipyrimidin-4(3H)-one], the IC50 on murine CCR2 worked out at 145 nM; on human CCR2, 2.9 nM.

Consider `COc1cc(C)nc(-c2nc(C(F)(F)F)c(Oc3ccc(Cl)c(C(F)(F)F)c3)c(=O)[nH]2)n1` [Example 184, 5-[4-chloro-3-(trifluoromethyl)phenoxy]-4′-methoxy-6′-methyl-6-(trifluoromethyl)-2,2′-bipyrimidin-4(3H)-one], for which the IC50 was 221 nM on murine CCR2 and 0.8 nM against human CCR2.

On to `O=c1[nH]c(-c2ncccc2C(F)(F)F)nc(C(F)(F)F)c1Oc1ccc(Cl)c(Cl)c1` [Example 185, 5-(3,4-dichlorophenoxy)-6-(trifluoromethyl)-2-[3-(trifluoromethyl)pyridin-2-yl]pyrimidin-4(3H)-one], for which the IC50 at murine CCR2 stood at 405 nM; at human CCR2, 27 nM.

For the compound `O=c1[nH]c(-c2ncccc2C(F)(F)F)nc(C(F)(F)F)c1Oc1ccc(Cl)c(C(F)(F)F)c1` [Example 186, 5-[4-chloro-3-(trifluoromethyl)phenoxy)-6-(trifluoromethyl)-2-[3-(trifluoromethyl)pyridin-2-yl]pyrimidin-4(3H)-one], the IC50 at murine CCR2 stood at 513 nM; against human CCR2, 4.8 nM.

As to `O=c1[nH]c(-c2ncccc2-c2ccccc2)nc(C(F)(F)F)c1Oc1ccc(Cl)c(Cl)c1` [Example 187, 5-(3,4-dichlorophenoxy)-2-(3-phenylpyridin-2-yl)-6-(trifluoromethyl)pyrimidin-4(3H)-one], the figures for the IC50 at murine CCR2 and against human CCR2 were 1600 nM and 16 nM, respectively.

In the case of `O=c1[nH]c(-c2ncccc2-c2ccccc2)nc(C(F)(F)F)c1Oc1ccc(Cl)c(C(F)(F)F)c1` [Example 188, 5-[4-chloro-3-(trifluoromethyl)phenoxy]-2-(3-phenylpyridin-2-yl)-6-(trifluoromethyl)pyrimidin-4(3H)-one], the 50% inhibitory concentration (IC50) came to 828 nM on murine CCR2 and 1.5 nM against human CCR2.

As for `CC(C)(C)Sc1cccnc1-c1nc(C(F)(F)F)c(Oc2ccc(Cl)c(Cl)c2)c(=O)[nH]1` [Example 189], the figures for the half-maximal inhibitory concentration (IC50) at murine CCR2 and against human CCR2 were 1030 nM and 53 nM, respectively.

For `CC(C)(C)Sc1cccnc1-c1nc(C(F)(F)F)c(Oc2ccc(Cl)c(C(F)(F)F)c2)c(=O)[nH]1` [Example 190], the IC50 worked out at 2110 nM on murine CCR2 and 62 nM at human CCR2.

`CSc1ccnc(-c2nc(C(F)(F)F)c(Oc3ccc(Cl)c(C(F)(F)F)c3)c(=O)[nH]2)c1` [Example 191, 5-[4-chloro-3-(trifluoromethyl)phenoxy)-2-[4-(methylsulphanyl)pyridin-2-yl]-6-(trifluoromethyl)pyrimidin-4(3H)-one]: the IC50 at murine CCR2 stood at 693 nM; at human CCR2, 5 nM.

Regarding `CSc1ccnc(-c2nc(C(F)(F)F)c(Oc3ccc(Cl)c(Cl)c3)c(=O)[nH]2)c1` [Example 192, 5-(3,4-dichlorophenoxy)-2-[4-(methylsulphanyl)pyridin-2-yl]-6-(trifluoromethyl)pyrimidin-4(3H)-one], the IC50 on murine CCR2 turned out to be 758 nM; at human CCR2 it was 11 nM.

On to `Cc1ccc(-c2nc(C(F)(F)F)c(Oc3ccc(Cl)c(C(F)(F)F)c3)c(=O)[nH]2)nc1` [Example 193, 5-[4-chloro-3-(trifluoromethyl)phenoxy]-2-(5-methylpyridin-2-yl)-6-(trifluoromethyl)pyrimidin-4(3H)-one], for which the IC50 was found to be 79 nM on murine CCR2 and 0.7 nM against human CCR2.

As to `COc1cccnc1-c1nc(C(F)(F)F)c(Oc2ccc(Cl)c(C)c2)c(=O)[nH]1` [Example 194, 5-(4-chloro-3-methylphenoxy)-2-(3-methoxypyridin-2-yl)-6-(trifluoromethyl)pyrimidin-4(3H)-one], the half-maximal inhibitory concentration (IC50) on murine CCR2 amounted to 59 nM; on human CCR2 it was 0.3 nM.

With `O=c1[nH]c(-c2ccc(Cl)cn2)nc(C(F)(F)F)c1Oc1ccc(Cl)c(C(F)(F)F)c1` [Example 195, 2-(5-chloropyridin-2-yl)-5-[4-chloro-3-(trifluoromethyl)phenoxy]-6-(trifluoromethyl)pyrimidin-4(3H)-one], the results for the IC50 at murine CCR2 and against human CCR2 were 157 nM and 1.1 nM, respectively.

Take `COc1cccnc1-c1nc(C(F)(F)F)c(Oc2ccc(C)c(Cl)c2)c(=O)[nH]1` [Example 196, 5-(3-chloro-4-methylphenoxy)-2-(3-methoxypyridin-2-yl)-6-(trifluoromethyl)pyrimidin-4(3H)-one]: the half-inhibitory concentration (IC50) on murine CCR2 came to 585 nM; at human CCR2, 1.7 nM.

Turning to `Cc1cc(Oc2c(C(F)(F)F)nc(-c3ncccc3Cl)[nH]c2=O)ccc1Cl` [Example 197, 5-(4-chloro-3-methylphenoxy)-2-(3-chloropyridin-2-yl)-6-(trifluoromethyl)pyrimidin-4(3H)-one], the results for the 50% inhibitory concentration (IC50) at murine CCR2 and at human CCR2 were 83 nM and 1.3 nM, respectively.

On to `CC(=O)Nc1ccc(-c2nc(C(F)(F)F)c(Oc3ccc(Cl)c(C(F)(F)F)c3)c(=O)[nH]2)nc1` [Example 199], for which the concentration for half-maximal inhibition (IC50) on murine CCR2 came to 110 nM; against human CCR2, 0.6 nM.

Regarding `CN(C)c1ccc(-c2nc(C(F)(F)F)c(Oc3ccc(Cl)c(Cl)c3)c(=O)[nH]2)nn1` [Example 200], the IC50 on murine CCR2 is 359 nM; against human CCR2, 1.2 nM.

Regarding `CN(C)c1ccc(-c2nc(C(F)(F)F)c(Oc3ccc(Cl)c(C(F)(F)F)c3)c(=O)[nH]2)nn1` [Example 201], the half-maximal inhibitory concentration (IC50) at murine CCR2 is 300 nM; against human CCR2 it was 0.7 nM.

With `CC(=O)Nc1ccc(-c2nc(C(F)(F)F)c(Oc3ccc(Cl)c(Cl)c3)c(=O)[nH]2)nc1` [Example 202], the IC50 amounted to 212 nM on murine CCR2 and 0.9 nM on human CCR2.

`O=c1[nH]c(-c2ncccc2OC(F)(F)F)nc(C(F)(F)F)c1Oc1ccc(Cl)c(Cl)c1` [Example 203]: the 50% inhibitory concentration (IC50) on murine CCR2 amounted to 423 nM; against human CCR2, 15 nM.

Consider `O=c1[nH]c(-c2ncccc2OC(F)(F)F)nc(C(F)(F)F)c1Oc1ccc(Cl)c(C(F)(F)F)c1` [Example 204], for which the results for the IC50 on murine CCR2 and on human CCR2 were 282 nM and 9.2 nM, respectively.

Take `Cn1nc(-c2nc(C(F)(F)F)c(Oc3ccc(Cl)c(Cl)c3)c(=O)[nH]2)c2cccnc21` [Example 205]: the IC50 at murine CCR2 stood at 2490 nM; against human CCR2 it was 26 nM.

With `Cn1nc(-c2nc(C(F)(F)F)c(Oc3ccc(Cl)c(C(F)(F)F)c3)c(=O)[nH]2)c2cccnc21` [Example 206], the 50% inhibitory concentration (IC50) at murine CCR2 amounted to 1990 nM; at human CCR2 it was 12 nM.

For the compound `COc1ccc2c(-c3nc(C(F)(F)F)c(Oc4ccc(Cl)c(C(F)(F)F)c4)c(=O)[nH]3)noc2c1` [Example 207], the half-maximal inhibitory concentration (IC50) on murine CCR2 was 4490 nM; against human CCR2, 81 nM.

Regarding `COc1ccc2c(-c3nc(C(F)(F)F)c(Oc4ccc(Cl)c(Cl)c4)c(=O)[nH]3)noc2c1` [Example 208], the half-maximal inhibitory concentration (IC50) was 9580 nM at murine CCR2 and 77 nM against human CCR2.

Take `CC(=O)Nc1ccc2c(-c3nc(C(F)(F)F)c(Oc4ccc(Cl)c(C(F)(F)F)c4)c(=O)[nH]3)noc2c1` [Example 209]: the IC50 on murine CCR2 came to 368 nM; at human CCR2 it was 22 nM.

Consider `O=c1[nH]c(-c2ncccc2Cl)nc(C(F)(F)F)c1Oc1ccc(Cl)cc1` [Example 210], for which the 50% inhibitory concentration (IC50) at murine CCR2 amounted to 349 nM; on human CCR2, 3 nM.

For `O=c1[nH]c(-c2ncccc2Cl)nc(C(F)(F)F)c1Cc1ccc(Cl)cc1` [Example 211], the values for the IC50 on murine CCR2 and against human CCR2 were 299 nM and 1.5 nM, respectively.

`Cc1cnc(-c2nc(C(F)(F)F)c(Oc3ccc(Cl)c(Cl)c3)c(=O)[nH]2)cc1C` [Example 212]: the half-inhibitory concentration (IC50) came out at 1700 nM on murine CCR2 and 2.6 nM on human CCR2.

In the case of `COc1c[nH]nc1-c1nc(C(F)(F)F)c(Oc2ccc(Cl)c(Cl)c2)c(=O)[nH]1` [Example 213], the IC50 at murine CCR2 stood at 49 nM; against human CCR2 it was 0.6 nM.

Consider `COc1c[nH]nc1-c1nc(C(F)(F)F)c(Oc2ccc(Cl)c(C(F)(F)F)c2)c(=O)[nH]1` [Example 214, 5-[4-chloro-3-(trifluoromethyl)phenoxy)-2-(4-methoxy-1H-pyrazol-3-yl)-6-(trifluoromethyl)pyrimidin-4(3H)-one], for which the IC50 was 8.5 nM on murine CCR2 and 0.6 nM on human CCR2.

As to `CCCc1cc(-c2nc(C(F)(F)F)c(Oc3ccc(Cl)c(Cl)c3)c(=O)[nH]2)no1` [Example 215], the concentration for half-maximal inhibition (IC50) at murine CCR2 is 1150 nM; against human CCR2 it was 7.9 nM.
